Test results from US8507756B2, “Plant protection” (Plant Bioscience Limited, priority 2007, dated 2013).

What was measured:
[1] = tested on: Spodoptera exempta; test: JA seed treatment, maize plants challenged with Spodoptera exempta caterpillars; type: in vivo; settings: maize cv. Earligold, seed treatment 1.5 mM JA, 2 days feeding
Method: Tomato, pepper, maize and wheat seeds were treated with 3 mM JA or 1.5 mM JA solutions or with 3 mM methyl jasmonate (MeJA) or with deionised water containing 42.8 mM ethanol (control) by full submersion of up to 40 seeds in a Petri dish of solution wrapped in foil for a period of 24 hours at 4° C. in a fridge. A temperature of 4° C. was used both to prevent degradation of the jasmonic acid solutions and to prevent germination of the seeds.
Wheat and maize seeds were sown in peat-based compost and grown in unheated glass houses with supplementary lighting. (600 W SON-T lamps, for 16 hours per day) in the autumn.
Tomato plants were then challenged with Tetranychus urticae (two-spotted spider mite) which were allowed to feed for 9 days, Manduca sexta (tobacco hornworm) caterpillars which were allowed to feed for 4 days or Myzus persicae (aphid), which were allowed to feed for 10 or 12 days. […]
The effect of Manduca sexta or Spodoptera exempta on plants was determined by measurement of the leaf area eaten, measured using a leaf area meter.
Seeds of maize cv. […] Caterpillars were allowed to feed on the plants for 2 days and the area of grazed leaves was then measured. […] When expressed as the area of leaf consumed per unit weight of caterpillars the reduction in plants grown from seed treated with JA was even more pronounced (40%, p<0.001, FIG. 9). […]

[2] = tested on: Myzus persicae; test: JA or MeJA seed treatment, tomato plants challenged with aphids; type: in vivo; settings: tomato cv. Carousel, seed treatment 3.0 mM JA, challenged 10 weeks after sowing
Method: Tomato, pepper, maize and wheat seeds were treated with 3 mM JA or 1.5 mM JA solutions or with 3 mM methyl jasmonate (MeJA) or with deionised water containing 42.8 mM ethanol (control) by full submersion of up to 40 seeds in a Petri dish of solution wrapped in foil for a period of 24 hours at 4° C. in a fridge. A temperature of 4° C. was used both to prevent degradation of the jasmonic acid solutions and to prevent germination of the seeds. The seeds were then removed from the treatment solution and washed in 1 liter of deionised water for 5 minutes to remove the JA or MeJA coating the outside of the seeds. Tomato seeds were sown in rockwool blocks and grown on peat-based compost in glass houses at 12° C.-28° C. under artificial light on a 16 hour light and 8 hour dark cycle for 48, 56 or 70 days. Tomato plants were then challenged with Tetranychus urticae (two-spotted spider mite) which were allowed to feed for 9 days, Manduca sexta (tobacco hornworm) caterpillars which were allowed to feed for 4 days or Myzus persicae (aphid), which were allowed to feed for 10 or 12 days. In each case these organisms were restricted to the plant on which they had originally been placed. Pepper plants were challenged with Myzus persicae (aphid), which were allowed to feed for 2 weeks. Maize and wheat plants were challenged with Spodoptera […] caterpillars which were allowed to feed for 2 days (maize) or 3 days (wheat). The effect of Myzus persicae on plants was determined by counting the aphid population on each plant under a dissecting microscope at ×10 magnification. Seeds of a UK commercial F1 hybrid tomato variety (cv. Carousel) were treated with 3.0 mM jasmonic acid (JA) and 42.8 mM ethanol in deionised H2O for a period of 24 hours at 4° C. in the dark. […] Aphids were allowed to feed on the plants for twelve days and the aphid population was measured at intervals over this period. […]

CC/C=C\C[C@H]1C(=O)CC[C@@H]1CC(=O)O [JA, jasmonic acid]
Area of leaf consumed per unit weight of caterpillars, reduction vs controls ([1]; p<0.001): 40%
Leaf area consumed by caterpillars, lower than controls ([1]; tassel stage approx. 10 weeks after seed treatment, p<0.05): 38%
Aphid population compared with control plants ([2]; 12 days feeding): significant (p<0.05) reduction
Aphid population compared with control plants, treated seed stored before sowing ([2]; seed dried and stored at 4 C for two months before sowing, 10 days feeding): significant (p<0.05) reduction
